Here are results for 37 compounds from US6462037B1, “1,4-benzodiazepin-2-ones useful as HIV reverse transcriptase inhibitors” (Bristol-Myers Squibb Pharma Company, priority 1999, dated 2002).

Turning to `CCC(C)CCN1CC(=O)Nc2ccc(Cl)cc2C1C(F)(F)F` (stereo not shown) [compound 131, 7-Chloro-4-(3-methylpentyl)-1,5-dihydro-5-(trifluoromethyl)-1,4-benzodiazepin-2-one], the melting point was 113 to 116 °C.
To `COc1cccc(F)c1CN1CC(=O)Nc2ccc(F)c(F)c2C1C(F)(F)F` (stereo not shown) [compound 132, 6,7-Difluoro-4-(2-fluoro-6-methoxybenzyl)-1,5-dihydro-5-(trifluoromethyl)-1,4-benzodiazepin-2-one] belongs 168 to 170 °C; to `CC(C)C#CC1(C(F)(F)F)c2c(ccc(F)c2F)NC(=O)CN1O` (stereo not shown) [compound 133, 6,7-Difluoro-4-hydroxy-5-(3-methyl-1-butynyl)-1,5-dihydro-5-(trifluoromethyl)-1,4-benzodiazepin-2-one], 174 to 176 °C.
To `CC(C)C#CC1(C(F)(F)F)N=CC(=O)Nc2ccc(Cl)cc21` (stereo not shown) [compound 134, 7-Chloro-5-(3-methyl-1-butynyl)-1,5-dihydro-5-(trifluoromethyl)-1,4-benzodiazepin-2-one] belongs 185 to 187 °C; to `O=C1C=NC(C#Cc2cccs2)(C(F)(F)F)c2cc(Cl)ccc2N1` (stereo not shown) [compound 135, 7-Chloro-5-(2-thienylethynyl)-1,5-dihydro-5-(trifluoromethyl)-1,4-benzodiazepin-2-one], 196 to 198 °C.
In turn, `CCCCN1CC(=O)Nc2ccc(Cl)cc2C1(C#CC(C)C)C(F)(F)F` (stereo not shown) [compound 136, 7-Chloro-4-butyl-5-(3-methyl-1-butynyl)-1,5-dihydro-5-(trifluoromethyl)-1,4-benzodiazepin-2-one] had a melting point of 123 to 125 °C.
To `O=C1CN(Cc2ccccc2F)C(C(F)(F)F)c2cc(Cl)ccc2N1` (stereo not shown) [compound 137, 7-Chloro-4-(2-fluorobenzyl)-1,5-dihydro-5-(trifluoromethyl)-1,4-benzodiazepin-2-one] belongs 170 to 171 °C.
As for `O=C1CN(CCc2ccccc2Cl)C(C(F)(F)F)c2cc(Cl)ccc2N1` (stereo not shown) [compound 138, 7-Chloro-4-(2-(2-chlorophenyl)ethyl)-1,5-dihydro-5-(trifluoromethyl)-1,4-benzodiazepin-2-one], the melting point is 161 to 162 °C.
As for `O=C1CN(C(=O)c2ccccc2)C(C(F)(F)F)c2cc(Cl)ccc2N1` (stereo not shown) [compound 139, 7-Chloro-4-benzoyl-1,5-dihydro-5-(trifluoromethyl)-1,4-benzodiazepin-2-one], the melting point lay in the range of 257 to 258 °C.
`O=C1CN(CCc2ccccc2I)C(C(F)(F)F)c2cc(Cl)ccc2N1` (stereo not shown) [compound 140, 7-Chloro-4-(2-(2-iodophenyl)ethyl)-1,5-dihydro-5-(trifluoromethyl)-1,4-benzodiazepin-2-one] registered a melting point of 172 to 173 °C.
The figure for `O=C1CN(CCc2cccc(Cl)c2)C(C(F)(F)F)c2cc(Cl)ccc2N1` (stereo not shown) [compound 141, 7-Chloro-4-(2-(3-chlorophenyl)ethyl)-1,5-dihydro-5-(trifluoromethyl)-1,4-benzodiazepin-2-one] is 208 to 209 °C.
The figure for `O=C1CN(Cc2cccc(F)c2)C(C(F)(F)F)c2cc(Cl)ccc2N1` (stereo not shown) [compound 142, 7-Chloro-4-(3-fluorobenzyl)-1,5-dihydro-5-(trifluoromethyl)-1,4-benzodiazepin-2-one] is 181 to 182 °C; for `COc1cccc(OC)c1CN1CC(=O)Nc2ccc(Cl)cc2C1C(F)(F)F` (stereo not shown) [compound 143, 7-Chloro-4-(2,6-dimethoxybenzyl)-1,5-dihydro-5-(trifluoromethyl)-1,4-benzodiazepin-2-one] it is 128 to 129 °C; for `COc1ccc(OC)c(CN2CC(=O)Nc3ccc(Cl)cc3C2C(F)(F)F)c1` (stereo not shown) [compound 144, 7-Chloro-4-(2,5-dimethoxybenzyl)-1,5-dihydro-5-(trifluoromethyl)-1,4-benzodiazepin-2-one] it is 182 to 183 °C.
To `COc1ccc(OC)c(CN2CC(=O)Nc3ccc(Cl)cc3C2C(F)(F)F)c1F` (stereo not shown) [compound 145, 7-Chloro-4-(2,5-dimethoxy-6-fluorobenzyl)-1,5-dihydro-5-(trifluoromethyl)-1,4-benzodiazepin-2-one] belongs 121 to 122 °C; to `COc1cccc(F)c1CN1CC(=O)Nc2ccc(Cl)cc2C1C(F)(F)F` (stereo not shown) [compound 146, 7-Chloro-4-(2-methoxy-6-fluorobenzyl)-1,5-dihydro-5-(trifluoromethyl)-1,4-benzodiazepin-2-one], 107 to 108 °C; to `O=C1CN(Cc2cccc(F)c2F)C(C(F)(F)F)c2cc(Cl)ccc2N1` (stereo not shown) [compound 147, 7-Chloro-4-(2,3-difluorobenzyl)-1,5-dihydro-5-(trifluoromethyl)-1,4-benzodiazepin-2-one], 182 to 183 °C.
In turn, `O=C1CN(Cc2cc(F)ccc2F)C(C(F)(F)F)c2cc(Cl)ccc2N1` (stereo not shown) [compound 148, 7-Chloro-4-(2,5-difluorobenzyl)-1,5-dihydro-5-(trifluoromethyl)-1,4-benzodiazepin-2-one] gave a melting point of 134 to 135 °C.
To `CCC#CCN1CC(=O)Nc2ccc(Cl)cc2C1C(F)(F)F` (stereo not shown) [compound 149, 7-Chloro-4-(2-pentynyl)-1,5-dihydro-5-(trifluoromethyl)-1,4-benzodiazepin-2-one] belongs 123 to 124 °C; to `O=C1CN(Cc2cc(Br)cs2)C(C(F)(F)F)c2cc(Cl)ccc2N1` (stereo not shown) [compound 150, 7-Chloro-4-(4-bromothien-2-ylmethyl)-1,5-dihydro-5-(trifluoromethyl)-1,4-benzodiazepin-2-one], 173 to 174 °C.
`CC(C)CCN1CC(=O)Nc2ccc(Cl)cc2C1C(F)(F)F` (stereo not shown) [compound 151, 7-Chloro-4-(3-methylbutyl)-1,5-dihydro-5-(trifluoromethyl)-1,4-benzodiazepin-2-one] had a melting point of 68 to 70 °C.
`C=CCCCN1CC(=O)Nc2ccc(Cl)cc2C1C(F)(F)F` (stereo not shown) [compound 152, 7-Chloro-4-(4-penten-1-yl)-1,5-dihydro-5-(trifluoromethyl)-1,4-benzodiazepin-2-one]: the melting point was in the range of 86 to 87 °C.
In turn, `CCC=CCN1CC(=O)Nc2ccc(Cl)cc2C1C(F)(F)F` (stereo not shown) [compound 153, 7-Chloro-4-(2-penten-1-yl)-1,5-dihydro-5-(trifluoromethyl)-1,4-benzodiazepin-2-one] gave a melting point of 83 to 84 °C.
The figure for `O=C1CN(CC#Cc2ccccc2)C(C(F)(F)F)c2cc(Cl)ccc2N1` (stereo not shown) [compound 154, 7-Chloro-4-(3-phenyl-2-propynyl)-1,5-dihydro-5-(trifluoromethyl)-1,4-benzodiazepin-2-one] is 138 to 139 °C.
Compound `COc1ccc(F)c(F)c1CN1CC(=O)Nc2ccc(Cl)cc2C1C(F)(F)F` (stereo not shown) [compound 157, 7-Chloro-4-(2,3-difluoro-6-methoxybenzyl)-1,5-dihydro-5-(trifluoromethyl)-1,4-benzodiazepin-2-one] returned a melting point of 170 to 171 °C.
`COc1cccc(F)c1CN1CC(=O)Nc2ccc(Cl)cc2C1C(F)(F)F` (stereo not shown) [compound 158, 7-Chloro-4-(2-fluoro-6-methoxybenzyl)-1,5-dihydro-5-(trifluoromethyl)-1,4-benzodiazepin-2-one] showed a melting point of 156 to 157 °C.
For the compound `CCCCC1(C(F)(F)F)c2cc(Cl)ccc2NC(=O)CN1c1ccccc1` (stereo not shown) [compound 159, 7-Chloro-4-phenyl-5-butyl-1,5-dihydro-5-(trifluoromethyl)-1,4-benzodiazepin-2-one], the melting point was 177 to 178 °C.
The figure for `CCC#CCN1CC(=O)Nc2ccc(Cl)cc2C1C(F)(F)F` (stereo not shown) [compound 160, 7-Chloro-4-(2-pentynyl)-1,5-dihydro-5-(trifluoromethyl)-1,4-benzodiazepin-2-one] is 114 to 115 °C; for `O=C1CN(c2ccccc2)C(C(F)(F)F)c2cc(Cl)ccc2N1` (stereo not shown) [compound 164, 7-Chloro-4-phenyl-1,5-dihydro-5-(trifluoromethyl)-1,4-benzodiazepin-2-one] it is 187 to 188 °C; for `C#CCN1CC(=O)Nc2ccc(Cl)cc2C1C(F)(F)F` (stereo not shown) [compound 165, 7-Chloro-4-(2-propynyl)-1,5-dihydro-5-(trifluoromethyl)-1,4-benzodiazepin-2-one] it is 181 to 182 °C.
As for `CC#CCN1CC(=O)Nc2ccc(Cl)cc2C1C(F)(F)F` (stereo not shown) [compound 166, 7-Chloro-4-(2-butynyl)-1,5-dihydro-5-(trifluoromethyl)-1,4-benzodiazepin-2-one], the melting point fell in the range of 174 to 175 °C.
Regarding `O=C1C=NC(CC(=O)C2CC2)(C(F)(F)F)c2cc(Cl)ccc2N1` (stereo not shown) [compound 167, 7-Chloro-5-(2-cyclopropyl-2-ethanonyl)-1,5-dihydro-5-(trifluoromethyl)-1,4-benzodiazepin-2-one], the melting point fell in the range of 148 to 149 °C.
`O=C1C=NC(Cc2ccccc2)(C(F)(F)F)c2cc(Cl)ccc2N1` (stereo not shown) [compound 168, 7-Chloro-5-benzyl-1,5-dihydro-5-(trifluoromethyl)-1,4-benzodiazepin-2-one]: the melting point lay within 160 to 161 °C.
`CC(C)CC1(C(F)(F)F)N=CC(=O)Nc2ccc(Cl)cc21` (stereo not shown) [compound 169, 7-Chloro-5-(2-methylpropyl)-1,5-dihydro-5-(trifluoromethyl)-1,4-benzodiazepin-2-one] displayed a melting point of 118 to 119 °C.
To `O=C1C=NC(CCc2ccccc2)(C(F)(F)F)c2cc(Cl)ccc2N1` (stereo not shown) [compound 170, 7-Chloro-5-(2-phenylethyl)-1,5-dihydro-5-(trifluoromethyl)-1,4-benzodiazepin-2-one] belongs 182 to 183 °C; to `CCCCCC1(C(F)(F)F)N=C(C)C(=O)Nc2ccc(Cl)cc21` (stereo not shown) [compound 171, 7-Chloro-3-methyl-5-(4-methylbutyl)-1,5-dihydro-5-(trifluoromethyl)-1,4-benzodiazepin-2-one], 103 to 104 °C; to `O=C1C=N[C@](C#CC2CC2)(C(F)(F)F)c2cc(Cl)ccc2N1` [compound 174, 7-Chloro-5(S)-(cyclopropylethynyl)-1,5-dihydro-5-(trifluoromethyl)-1,4-benzodiazepin-2-one], 104 to 105 °C.

Broadly, the melting point is the temperature, or range, at which the solid turns liquid.
